Assay results reported in patent US20230355649A1, “FORMULATIONS OF ANTI-VIRAL COMPOUNDS” (priority 2020, published 2023).
Values after ≈ are worked out from the molar mass of the structure shown. Where two headings read alike, the source gives them in different places.

Legend:
[1] = system: human hepatocytes; experiment: In vitro metabolism study of Remdesivir with human hepatocytes; format: in vitro ADME
Protocol: The Relative abundance (%) of metabolites post-incubation of Remdesivir (10 μM) was determined after culture with human hepatocytes (1.3 million cells/mL).
Samples were analysed by ultra-high performance liquid chromatography tandem mass spectrometry (UHPLC-MS/MS) with a quadrople time of flight mass spectrometer, for acquisition of high-resolution accurate mass data, with electrospray ionization incorporating in-line UV detection with a photodiode array detector.

[2] = parameters: species or system Dog (Canis familiaris)/Beagle; conditions: male, beagle, dog, in vivo, 20 mg/kg
Protocol: An in vivo dog study in beagles was carried out to determine the pharmacokinetic (PK) profile of Remdesivir following 1) a single intravenous (IV) infusion of a control formulation and 2) an oral (PO) dose of an Example pharmaceutical composition ES040-72 according to the present invention.
For both IV or oral (PO) administered doses, plasma samples were collected over a period of 48 hours. Further details of the plasma collection are detailed in Table 13.

[3] = parameters: species or system Dog (Canis familiaris)/Beagle; conditions: dog, in vivo
Source text: For both IV or oral (PO) administered doses, blood samples were collected to determine the presence of analytes in PBMCs. Further details are detailed in Table 14. [table]

[4] = system: SARS-CoV-2 infected cell lines; conditions: shown in the literature; cited from earlier work
[5] = in vivo, cited from earlier work
[6] = not told; cited from earlier work
[7] = physchem; format: physicochemical
Source text: The solubility of Remdesivir was screened in a range of different acids to test the effect of pH and acidity on Remdesivir solubility.

[8] = Remdesivir solubility in co-solvents; format: physicochemical
[9] = physchem; format: physicochemical; conditions: aqueous with cosolvent or surfactant or cyclodextrin, read-out: Remdesivir Solubility
[10] = format: physicochemical
Protocol: In order to determine the stability of the prodrug Remdesivir at different pH, the stability of prodrug Remdesivir was tested over time at physiologically relevant pH of gastrointestinal media. The degradation of Remdesivir was determined by measuring the amount of unchanged Remdesivir using a suitable high pressure liquid chromatographic (HPLC) method and comparing the results against a pure reference sample of Remdesivir.

[11] = Dissolution and solubility study, Type II dissolution apparatus; format: physicochemical; conditions: drug substance powder in hard-gelatin capsule without excipients; 15 mg in 300 mL 0.4% Tween 80 in water, 100 rpm
Protocol: The solubility and/or dissolution of Remdesivir over time was determined for various pharmaceutical compositions using a Type II dissolution apparatus. The dissolution of the liquid formulation filled into hard-gelatin capsule and “as-is”, i.e. without being filled into the capsule shell were compared to the release of the non-formulated powder drug substance filled into the capsule, as well as the latter in combination with the solubilizing complexing agent, SBEβCD. The dissolution profiles were compared to that of acetaminophen drug substance filled into a hard-gelatin capsule. Acetaminophen has over 80% bioavailability in practice. […] At appropriate time intervals, about 1 mL aliquots of the dissolution media were withdrawn, filtered and tested using a high-pressure chromatographic assay method for Remdesivir. The area under the peak for the drug at the standard elution time was then compared against that of an external reference standard of Remdesivir to determine the concentration of dissolved Remdesivir at any given time.
Specifically, the Example formulation 1 (ES040-36) comprising Remdesivir was tested both as a solution added directly into the dissolution medium without being filled into a capsule shell to represent the release from an oral solution and also as filled into a hard-gelatin capsule. […]

[12] = in vivo, iv; cited from earlier work

C[C@H](NP(=O)(O)OC[C@H]1O[C@@](C#N)(c2ccc3c(N)ncnn23)[C@H](O)[C@@H]1O)C(=O)O [GS-704277]
Relative abundance of analytes post-incubation with Remdesivir ([1]; 2 h, Remdesivir 10 μM, human hepatocytes 1.3 million cells/mL): 0.0% | Relative abundance of analytes post-incubation with Remdesivir ([1]; 6 h, Remdesivir 10 μM, human hepatocytes 1.3 million cells/mL): 2.4% | Relative abundance of analytes post-incubation with Remdesivir ([1]; 24 h, Remdesivir 10 μM, human hepatocytes 1.3 million cells/mL): 2.2%

N#C[C@@]1(c2ccc3c(N)ncnn23)O[C@H](CO)[C@@H](O)[C@H]1O [GS-441524]
AUCinf ([2]; iv): 22000 ± 1950 ng·h/mL | AUClast ([2]; iv): 19800 ± 2510 ng·h/mL | AUCinf ([2]; po): 21700 ± 2170 ng·h/mL | AUClast ([2]; po): 21500 ± 2100 ng·h/mL | detection in PBMC cells [3]: detected | in vitro activity against SARS-CoV-2 infected cell lines [4]: considerable in vitro activity | oral bioavailability ([5]; po): poor oral bioavailability | permeability through the intestinal membrane [6]: poor permeability

CCC(CC)COC(=O)[C@H](C)N[P@](=O)(OC[C@H]1O[C@@](C#N)(c2ccc3c(N)ncnn23)[C@H](O)[C@@H]1O)Oc1ccccc1 [Remdesivir]
solubility ([7]; pH 0.5): 1690 µg/mL (≈ 2800 µM) | solubility ([7]; pH 0.5, aqueous buffer, Solubility): 950 µg/mL (≈ 1580 µM) | solubility ([7]; pH 0.98, simulated gastric fluid, Solubility): 2490 µg/mL (≈ 4130 µM) | solubility ([7]; pH 1, aqueous buffer, Solubility): 640 µg/mL (≈ 1060 µM) | solubility ([7]; pH 1.38, simulated gastric fluid, Solubility): 980 µg/mL (≈ 1630 µM) | solubility ([7]; pH 1.89, simulated gastric fluid, Solubility): 340 µg/mL (≈ 564 µM) | solubility ([7]; pH 2.91, aqueous buffer, Solubility): 5 µg/mL (≈ 8.3 µM) | solubility ([7]; pH 3.5, aqueous buffer, Solubility): 10 µg/mL (≈ 16.6 µM) | solubility ([7]; pH 4.74, aqueous buffer, Solubility): 1 µg/mL (≈ 1.66 µM) | solubility ([7]; pH 6.18, aqueous buffer, Solubility): 0.9 µg/mL (≈ 1.49 µM) | solubility ([7]; pH 6.72): 0 µg/mL | solubility ([8]; oil or lipid, Solubility): 15900 µg/mL (≈ 26400 µM) | solubility ([8]; organic solvent or mixture, solvent Span 80, read-out: Solubility): 300 µg/mL (≈ 498 µM) | solubility ([9]; Kolliphor EL (Polyoxyl 35 Castor Oil, Cremophor) 0.10 % w/w in water): 20 µg/mL (≈ 33.2 µM) | solubility ([9]; Poloxamer P407 0.07 % w/w in water): 6 µg/mL (≈ 9.96 µM) | solubility ([9]; TWEEN 20 (Polysorbate 20) 0.16 % w/w in water): 16 µg/mL (≈ 26.6 µM) | solubility ([9]; TWEEN 80 (Polysorbate 80) 0.30 % w/w in water): 33 µg/mL (≈ 54.8 µM) | stability / degradation of Remdesivir in solution [10]: acceptable stability and minimal degradation | dissolution of Remdesivir [11]: very slow dissolution | Relative abundance of analytes post-incubation with Remdesivir ([1]; human, 2 h, 10 μM): 4.8% | Relative abundance of analytes post-incubation with Remdesivir ([1]; human, 6 h, 10 μM): 0.1% | Relative abundance of analytes post-incubation with Remdesivir ([1]; human, 24 h, 10 μM): 0.7% | plasma concentration relative to its own EC50 [12]: rapidly declines to well below its own EC50

CC(=O)Nc1ccc(O)cc1 [Acetaminophen, acetaminophen]
bioavailability [5]: over 80%
